Experimental data from BigSolDB 2.1.

COC1=CC(=O)C[C@@H](C)[C@]12Oc1c(Cl)c(OC)cc(OC)c1C2=O
Settings | solubility (mole fraction)
in 1,2-dichloroethane, 290.05 K | 0.0197
in 1,2-dichloroethane, 294.3 K | 0.0209
in 1,2-dichloroethane, 300.25 K | 0.0222
in 1,2-dichloroethane, 305.55 K | 0.0236
in 1,2-dichloroethane, 310.05 K | 0.0251
in 1,2-dichloroethane, 315.65 K | 0.0268
in 1,2-dichloroethane, 319.35 K | 0.0289
in 1,2-dichloroethane, 324.05 K | 0.0311
in 1,2-dichloroethane, 329.65 K | 0.0335
in 2-butanone, 289.65 K | 0.00826
in 2-butanone, 296.95 K | 0.00941
in 2-butanone, 302.95 K | 0.0103
in 2-butanone, 308.25 K | 0.0117
in 2-butanone, 315.05 K | 0.0128
in 2-butanone, 320.4 K | 0.0141
in 2-butanone, 325.45 K | 0.0151
in 2-butanone, 330.35 K | 0.0163
in DMAc, 296.2 K | 0.0252
in DMAc, 301.25 K | 0.0276
in DMAc, 305.75 K | 0.0303
in DMAc, 310.75 K | 0.0326
in DMAc, 314.95 K | 0.0344
in DMAc, 319.25 K | 0.0369
in DMAc, 324.75 K | 0.0395
in DMAc, 330.05 K | 0.0422
in DMAc, 336.15 K | 0.0452
in DMAc, 340.25 K | 0.0488
in DMAc, 345.75 K | 0.0518
in DMAc, 350.55 K | 0.0549
in DMAc, 354.78 K | 0.0582
in DMSO, 296.75 K | 0.0167
in DMSO, 301.15 K | 0.0186
in DMSO, 306.15 K | 0.0204
in DMSO, 310.85 K | 0.0218
in DMSO, 315.55 K | 0.0239
in DMSO, 320.55 K | 0.026
in DMSO, 326.55 K | 0.0282
in DMSO, 331.95 K | 0.0302
in DMSO, 336.75 K | 0.0324
in DMSO, 341.05 K | 0.0345
in DMSO, 346.25 K | 0.0368
in DMSO, 351.7 K | 0.0393
in DMSO, 357.6 K | 0.0415
in NMP, 295.55 K | 0.0421
in NMP, 300.65 K | 0.0451
in NMP, 305.75 K | 0.048
in NMP, 310 K | 0.0511
in NMP, 315.1 K | 0.0541
in NMP, 320.6 K | 0.057
in NMP, 325.45 K | 0.0601
in NMP, 330.45 K | 0.0631
in NMP, 335.55 K | 0.0666
in NMP, 340.35 K | 0.0704
in NMP, 345.55 K | 0.0758
in NMP, 350.35 K | 0.0795
in NMP, 355.65 K | 0.083
in acetone, 281.95 K | 0.00648
in acetone, 286.4 K | 0.0071
in acetone, 291.85 K | 0.00776
in acetone, 296.4 K | 0.00853
in acetone, 300.8 K | 0.00941
in acetone, 305.05 K | 0.0102
in acetone, 310.25 K | 0.0117
in acetone, 313.65 K | 0.0129
in acetone, 317.05 K | 0.0143
